Assay results as given in patent US20070112042A1, “Topical agent for application to the skin prior to luminous treatment” (priority 2003, published 2007).

Test system: dermal collagen production
Conditions: topical Niacin plus 585 nm pulsed dye laser irradiation versus irradiation alone
Excerpt: Tests have been carried out for studying the dermal collagen production following topical application of Niacin prior to irradiation with a 585 nm pulsed dye laser.

SMILES: O=C(O)c1cccnc1 [Niacin, nicotinic acid]
- PIIINP levels (biochemical analysis): increase in the PIIINP levels above that of irradiation alone
